Source: patent US8350061B2, “Synthetic analogs of bacterial quorum sensors” (priority 2009, dated 2013)

What was measured:
Format in all cases: cell-based
[1] = tested on: A549 human lung epithelial cells
[2] = tested on: Yersinia pestis, Yersinia enterocolitica and Yersinis pseudomonas
[3] = tested on: Yersinia pestis, Yersinia enterocolitica

## CCCC(=[Se])NC1CCOC1=O (stereo not shown) [(IV), N-(2-oxo-tetrahydro-furan-3-yl)-selenobutyramide]
[1]
  infection of cells by Pseudomonas aeruginosa: prevented the infection of cells
  viability of cells: increase in the viability of cells
[2]
  viability of biofilm-growing bacteria: significantly inhibited
[3]
  biofilm formation: significantly inhibited
